Source: patent publication US10189803B2, “Synthesis of therapeutic and diagnostic drugs centered on regioselective and stereoselective ring opening of aziridinium ions” (ILLINOIS INSTITUTE OF TECHNOLOGY, priority 2008, dated 2019)
“And” between values parts separate entries of the source, which are not always exact repeats. Equal entries are not always repeated. “Also recorded” adds a separate entry of the source. Blank lines part the entries; values can stand above or below the compound they belong to.

Columns and labels:
[1] = tested on: HT29 cells; assay: Antiproliferative activity, MTS assay, HT29 cells; format: cell-based, Human
Experimental: (§1) Cell culture Human cervix HeLa cell line was obtained from ATCC (Rockville, Md.) and cultured in minimum essential medium (MEM) with L-glutamine (2 mM), Earle's BSS and sodium bicarbonate (1.5 g/L), supplemented with 10% fetal bovine serum (FBS), non-essential amino acids (0.1 mM), sodium pyruvate (1 mM) and antibiotic/antimycotic solution in a humidified atmosphere with 5% CO2 at 37° C. […] Lung fibroblast MRC-5 cell line was obtained from ATCC (Rockville, Md.) and cultured in ATCC formulated EMEM, supplemented with 10% fetal bovine serum (FBS) in a humidified atmosphere with 5% CO2 at 37° C.
(§2) Antiproliferative Activity. Cells were seeded onto 96-well plate at density of 2,000 cells for Hela cells or 5,000 cells for HT29 cells or 5,000 cells for MRC-5 per well in 0.1 mL complete medium and allowed to attach for 24 h. Varying concentrations of the test compounds in the final volume of 0.1 mL complete medium were then added in at least five series dilutions and incubated for 72 h. To measure cell proliferation, the Cell Titer 96 aqueous nonreactive cell proliferation assay (Promega Life Sciences, Madison, Wis.) was used according to the manufacturer's instructions. Briefly, MTS (2 mg/mL) and PMS (0.92 mg/ml) were mixed in a ratio of 20:1. An aliquot (20 μL) of the MTS/PMS mixture was added into each well, and the plate was incubated for 3 h at 37° C. Optical absorbance at 490 nm was then recorded with an enzyme-linked immunosorbent assay (ELISA) microtiter plate reader (Biotek). Each experiment was done at least in triplicate. Antiproliferative activity of the test compounds was expressed as the fraction of optical densities of treated the cells relative to the untreated solvent controls.^31 The data were plotted in GraphPad Prizm 3.0. Nonlinear regression analysis was used to determine IC50 values.
(§3) Cell culture. Human cervix HeLa cell line was obtained from ATCC (Rockville, Md.) and cultured in minimum essential medium (MEM) with L-glutamine (2 mM), Earle's BSS and sodium bicarbonate (1.5 g/L), supplemented with 10% fetal bovine serum (FBS), non-essential amino acids (0.1 mM), sodium pyruvate (1 mM) and antibiotic/antimycotic solution in a humidified atmosphere with 5% CO2 at 37° C.
as §2, with “activity.” for “Activity.”, “cells” for “cells or 5,000 cells for MRC-5”, “controls.” for “controls.^31”

[2] = tested on: Hela cells; assay: Antiproliferative activity, MTS assay, HeLa cells; format: cell-based, Human; details: for IC50: 72 h incubation, MTS; for cytotoxicity in HeLa cells over a series of concentrations (in words): FIG. 18
Experimental: as §1, §2, §3
as §2, with “activity.” for “Activity.”, “cells” for “cells or 5,000 cells for MRC-5”, “controls.” for “controls.^31”

[3] = In vitro serum stability of 64Cu-labeled ligands in rat serum (radio-TLC); format: in vitro ADME; details: for Purity (serum stability, radio-TLC): 37° C., n=3; for 64Cu dissociated from the complex: in 24 hours; for stability in rat serum (in words): 48 hours
Experimental: The radiolabeling reactions of the ligands with ^64Cu were performed at elevated temperatures to ensure complete complex formation. At the no-carrier-added (NCA) level, all ligands were successfully labeled with ^64Cu in quantitative radiochemical yields (100%) as determined by radio-TLC. […] The ^64Cu-labeled complexes were freshly prepared for their serum stability evaluation, which was assessed by measuring the transfer of radionuclide from the complex to serum proteins over 24 hours or 48 hours.
In vitro serum stability: To 100 μL of rat serum, 10 μL of each ^64Cu-labeled complex was added (n=3 per complex). DOTA labeled with ^64Cu was used as a positive control. The resulting solutions were incubated at 37° C. in a water-bath. At 1 h, 4 h, 24 h and 48 h after the complex addition to rat serum, the solutions were sampled and analyzed by radio-TLC.

[4] = In vitro serum stability of 177Lu-labeled complexes (radio-TLC, HPLC); format: in vitro ADME, mouse; set-up: Radiolabled Complex, in vitro serum stability (Table 1): unit not given here; details: for Radiolabled Complex, in vitro serum stability (Table 1): 37° C.
Experimental: The new ligand DEPA was radiolabeled with ^177Lu and ^205/6Bi (a surrogate of ^212Bi and ^213Bi) and the corresponding radiolabeled complexes were evaluated for in vitro serum stability as described previously. For comparison, DOTA was also radiolabeled with ^177Lu. DEPA and DOTA (0.25 M NH4OAc buffer, pH 4.0) was radiolabeled with ^177Lu at 45° C. for 0.5 h to afford ^177Lu-DEPA (Rf=0.6) and ^177Lu-DOTA (Rf=0.4) in the respective radiochemical yield of 90% and 95% as determined by radio-TLC. DEPA (0.25 M NH4OAc buffer, pH 5.0) was successfully radiolabeled with ^205/6Bi at room temperature for 1 h to afford ^205/6Bi-DEPA in 96% yield (radio-TLC). ^177Lu-DOTA, 177Lu-DEPA, and ^205/6Bi-DEPA formed were purified from unbound ^205/6Bi by ion-exchange chromatography using a Chelex-100 column (1 mL volume bed, 100-200 mesh, Na^+ form, Bio-Rad, Richmond, Calif.) eluted with PBS (pH 7.4). In vitro serum stability of the purified radiolabeled complexes was performed to determine if DEPA or DOTA radiolabeled with ^177Lu or ^205/6Bi remained stable without loss of the radionuclide in human serum. This was assessed by measuring the transfer of radionuclide from the complex to serum proteins. […] However, ˜10% of the radioactivity was released from ^177Lu-DOTA over 4 days.
In vitro serum stability of the radiolabeled metal complexes. An aliquot of 3.7 MBq of the purified ^177Lu-labeled ligands was added to 0.5 mL of mouse serum (Sigma, St. Louis, Mo.) and 0.1% NaN3. The resulting mixture was incubated at 37° C. for 96 h. Aliquots of 2 μL of the resulting mixture were analyzed by radio-TLC and HPLC at different time points, 0, 0.25, 0.5, 1, 2, 4, 6, 24, 48, and 96 h of incubation. The stability of purified ^205/6Bi-DEPA was evaluated in human serum (Gemini Bioproducts, Woodland, Calif.) for 14 days by measuring the transfer of the radionuclide from the complex to serum proteins as monitored by SE-HPLC. Radiolabeled complexes were diluted to an appropriate volume that allowed for preparation of multiple samples containing 5-10 μCi and filter-sterilized using a Millex-GV 0.22 μm filter. 140 μL of this stock solution was then mixed with 1400 μL of sterile normal human serum or saline. Aliquots (200 μL) were drawn and separated into individual tubes for subsequent analysis using aseptic technique. The samples were incubated at 37° C., and at designated intervals, subjected to analysis by SE-HPLC. Samples were loaded onto the HPLC and eluted with PBS, pH 7.4 isocratically at 1 mL/min. […] Radioactivity associated with a transfer to serum proteins generally appeared between ˜4.5-8 min.

[5] = Homo sapiens, HT-29, 72 h incubation

Compound: O=C(O)CN1CCN(CCN(CC(=O)O)Cc2ccccc2)CCN(CC(=O)O)CC1 [Bn-NE3TA]
- IC50 ([1]; 72 h incubation): 2.6 ± 0.2 µM
- IC50 [2]: 4.4 ± 0.9 µM
- cytotoxicity in HeLa cells over a series of concentrations (in words) [2]: highest activity against HeLa cells

Compound: O=C(O)CNC(Cc1ccc([N+](=O)[O-])cc1)CN1CCN(CC(=O)O)CCN(CC(=O)O)CC1 (centres unmarked) [C-NE3TA, {4-Carboxymethyl-7-[2-(carboxymethyl-amino)-3-(4-nitro-phenyl)-propyl]-[1,4,7]triazonan-1-yl}-acetic acid]
- IC50 [1, 5]: 5 ± 0.7 µM
- IC50 ([2]; Homo sapiens): 7.1 ± 0.1 µM

Compound: O=C(O)CN1CCN(CC(=O)O)CCN(CC(Cc2ccc([N+](=O)[O-])cc2)N(CC(=O)O)CC(=O)O)CC1 (centres unmarked) [C-NETA]
- IC50 ([1]; 72 h incubation): 45.7 ± 4 µM
- IC50 [2]: > 100 µM
- cytotoxicity in HeLa cells over a series of concentrations (in words) [2]: virtually no inhibitory activity

Compound: CC(CCC(=O)Nc1ccc(CC(CN2CCN(CC(=O)O)CCN(CC(=O)O)CC2)NCC(=O)O)cc1)C1CCC2C3CCC4CC(O)CCC4(C)C3CC(O)C12C (centres unmarked) [DCA-NE3TA, [4-Carboxymethyl-7-(2-(carboxymethyl-amino)-3-{4-[4-(3,12-dihydroxy-10,13-dimethylhexadecahydro-cyclopenta[a]phenanthren-17-yl)-pentanoylamino]-phenyl}-propyl)-[1,4,7]triazonan-1-yl]-acetic acid]
- IC50 [1, 5]: 7.5 ± 0.3 µM
- sensitivity of HeLa cells relative to DTPA [2]: approximately 40 fold
- IC50 ([2]; Homo sapiens): 6.3 ± 0.1 µM

- IC50 [1, 5]: 6.8 ± 0.4 µM
- IC50 ([2]; Homo sapiens): 8.4 ± 0.4 µM
Compound: O=C(O)CN1CCN(CCN(CC(=O)O)Cc2ccc([N+](=O)[O-])cc2)CCN(CC(=O)O)CC1 [N-NE3TA]

Compound: O=C(O)CNCCN1CCN(CC(=O)O)CCN(CC(=O)O)CC1 [NE3TA, (4-Carboxymethyl-7-[2-(carboxymethyl-amino)-ethyl]-[1,4,7]trizonan-1-yl)-acetic acid]
- IC50 [1, 5]: 4.7 ± 0.3 µM
- IC50 ([2]; Homo sapiens): 5.7 ± 0.3 µM

Compound: O=C(O)CN1CCN(CCO)CCN(CC(=O)O)CC1.[64Cu] [^64Cu-NBEA]
- Purity (serum stability, radio-TLC) ([3]; incubation time 1 h): 100 ± 0.0
- Purity (serum stability, radio-TLC) ([3]; incubation time 4 h): 100 ± 0.0
- Purity (serum stability, radio-TLC) ([3]; incubation time 24 h): 45.3 ± 9.8
- 64Cu dissociated from the complex [3]: 54%

Compound: O=C(O)CN1CCN(CCCO)CCN(CC(=O)O)CC1.[64Cu] [^64Cu-NBPA]
- Purity (serum stability, radio-TLC) ([3]; incubation time 1 h): 99.6 ± 0.7
- Purity (serum stability, radio-TLC) ([3]; incubation time 4 h): 97.5 ± 4.4
- Purity (serum stability, radio-TLC) ([3]; incubation time 24 h): 70.5 ± 6.5
- 64Cu dissociated from the complex [3]: 29%

Compound: O=C(O)CN1CCN(CCN(CC(=O)O)Cc2ccccc2)CCN(CC(=O)O)CC1.[64Cu] [^64Cu-NE3TA-Bn]
- Purity (serum stability, radio-TLC) ([3]; incubation time 1 h): 100 ± 0.0
- Purity (serum stability, radio-TLC) ([3]; incubation time 4 h): 100 ± 0.0
- Purity (serum stability, radio-TLC) ([3]; incubation time 24 h): 100 ± 0.0
- Purity (serum stability, radio-TLC) ([3]; incubation time 48 h): 100 ± 0.0
- stability in rat serum (in words) [3]: no measurable loss of radioactivity

Compound: O=C(O)CNCCN1CCN(CC(=O)O)CCN(CC(=O)O)CC1.[64Cu] [^64Cu-NE3TA]
- Purity (serum stability, radio-TLC) ([3]; incubation time 1 h): 100 ± 0.0
- Purity (serum stability, radio-TLC) ([3]; incubation time 4 h): 100 ± 0.0
- Purity (serum stability, radio-TLC) ([3]; incubation time 24 h): 100 ± 0.0
- Purity (serum stability, radio-TLC) ([3]; incubation time 48 h): 100 ± 0.0
- stability in rat serum (in words) [3]: no measurable loss of radioactivity

Compound: O=C(O)CN1CCN(CCN(CC(=O)O)CC(=O)O)CCN(CC(=O)O)CCN(CC(=O)O)CC1.[177Lu] [^177Lu-DEPA]
- Radiolabled Complex, in vitro serum stability (Table 1) ([4]; serum, 0 h): 100
- Radiolabled Complex, in vitro serum stability (Table 1) ([4]; serum, 0.5 h): 100
- Radiolabled Complex, in vitro serum stability (Table 1) ([4]; serum, 1 h): 100
- Radiolabled Complex, in vitro serum stability (Table 1) ([4]; serum, 2 h): 100
- Radiolabled Complex, in vitro serum stability (Table 1) ([4]; serum, 4 h): 100
- Radiolabled Complex, in vitro serum stability (Table 1) ([4]; serum, 6 h): 100
- Radiolabled Complex, in vitro serum stability (Table 1) ([4]; serum, 24 h): 100
- Radiolabled Complex, in vitro serum stability (Table 1) ([4]; serum, 48 h): 100
- Radiolabled Complex, in vitro serum stability (Table 1) ([4]; serum, 96 h): 100
- serum stability of 177Lu complex (in words) ([4]; serum, up to 96 h): remained intact without being dissociated in serum; also recorded: stable in serum

Compound: O=C([O-])CN1CCN(CC(=O)[O-])CCN(CC(=O)[O-])CCN(CC(=O)[O-])CC1.[177Lu+3].[H+] [^177Lu-DOTA, reference compound]
- radioactivity released from the complex in serum ([4]; over 4 days): ~10% and 11%
- Radiolabled Complex, in vitro serum stability (Table 1) ([4]; serum, 0 h): 100
- Radiolabled Complex, in vitro serum stability (Table 1) ([4]; serum, 0.5 h): 99.0
- Radiolabled Complex, in vitro serum stability (Table 1) ([4]; serum, 1 h): 100.1
- Radiolabled Complex, in vitro serum stability (Table 1) ([4]; serum, 2 h): 99.3
- Radiolabled Complex, in vitro serum stability (Table 1) ([4]; serum, 4 h): 97.0
- Radiolabled Complex, in vitro serum stability (Table 1) ([4]; serum, 6 h): 97.5
- Radiolabled Complex, in vitro serum stability (Table 1) ([4]; serum, 24 h): 98.2
- Radiolabled Complex, in vitro serum stability (Table 1) ([4]; serum, 48 h): 91.2
- Radiolabled Complex, in vitro serum stability (Table 1) ([4]; serum, 96 h): 89.6

- IC50 [2]: 8.85 ± 1.43 µM
Compound: Apo-N-NE3TA: ligand-transferin conjugate (apo) of N-NE3TA-NCS

- IC50 [2]: 7.03 ± 0.09 µM
Compound: Holo-C-NE3TA: ligand-transferin conjugate (holo) of C-NE3TA-NCS

- IC50 [2]: 11.5 ± 0.21 µM
Compound: Holo-N-NE3TA: ligand-transferin conjugate (holo) of N-NE3TA-NCS
